{
  "source": "patent US20090030079A1",
  "about": "(priority 2007, published 2009)",
  "key": {"[1]": {"experiment": "Decorporation of Cobalt-60: tissue distribution and excretion of IV administered Co-60 in rats", "type": "in vivo, Male Wistar-Han rats", "conditions": "single oral dose 15 mg/kg; for Co-60 Dose % for animal group: single IV Co-60 14 KBq, 48 hr post exposure", "protocol": "Materials. Chloride stock solution of ^60Co as ^60CoCl2 was diluted with sterile saline solution to adjust to the desired activity and used for the IV dosing. Activity of the dosing solution was determined using automated Wallac 1480 (Perkin Elmer) gamma counter equipped with 3 inch NaI(TI) crystal shielded detector.\nAnimals. Male Wistar-Han rats were obtained from Charles River Breeding Laboratory (Raleigh, N.C.) with indwelling jugular vein cannula. Animals were provided food and water ad libitum during acclimatization. The light cycle was 12 hour light/12 hour dark and relative humidity and temperature maintained at 50±15% and 22±2° C. All animal use protocols were approved by the Institutional Animal Care and Use Committee at Battelle, Pacific Northwest Division and studies were performed according to the “Guide for the Care and Use of Laboratory Animals” (National Research Council, Washington D.C., 1996).\nDosing regimen. Animals were restricted from food overnight prior to exposure. At the time of exposure, groups of animals (N=6) received a single intravenous (IV) injection (0.2 mL) of ^60Co solution at 14.0±0.6 KBq dose in sterile saline via an indwelling jugular vein cannula. […] The actual doses delivered were calculated based on the individual animal weights (Table 3). One group of animals was dosed with the radionuclide without subsequent administration of the chelation material to serve as control group. Following dosing, animals were placed in Nalgene metabolism cages for separate collection of urine and feces. […] Animals were sacrificed 48 hr post radionuclide administration. At sacrifice, blood and tissues (liver, kidney, spleen, gastrointestinal tract, muscle, bone, bone marrow, and lung) were collected, weighed and counted for radioactivity using a Wallac 1480 gamma counter. Gamma count data were normalized to percent administered dose after adjusting the grams of tissue collected for total organ mass.\nData statistical evaluation. Each data group was subjected to Dixon's Q-test to evaluate for potential outliers. In this test Q parameter of 0.625 (N=6, 95% confidence level, a=0.05) was used (1). For each tissue, a preliminary F-test (95% confidence level, a=0.05) for the equality of variances of the control and each treatment group was performed using Excel software. If the calculated probability p value was less than 0.05, the variances were assumed to be not equal. Based on this information, “T-test: Two-Sample Assuming Unequal Variances” or “T-test: Two-Sample Assuming Equal Variances” (95% confidence level, a=0.05) was performed using Excel software. The calculated p-value less than 0.05 provides evidence to reject the null hypothesis of equal means. The obtained statistical parameters listed in Table 4 served as guidelines for data evaluation (Table 5; calculation assumes that total skeleton, blood, or muscle is approximately 7.3, 6, or 40% of the body weight of the animal, respectively; Co-60 in skeleton is calculated based on the femur data—R. P. Brown, M. D. Delp, S. L. Undstedt, L. R. Rhomberg, and R. P. Beliles, Physiological Parameter Values for Physiologically Based Pharmacokinetic Models. Toxicology and Industrial Health, 1997, 13(4): 407-484)."}, "[2]": {"experiment": "Decorporation of Polonium-210: tissue distribution of IV administered Po-210 in rats", "type": "in vivo, Wistar-Han rats", "conditions": "for % Reduction of Po-210 vs Po-210 Control / effect on polonium-210 level (in words): oral 15 mg/kg x 5, day 6; for Po-210 dpm/gm for animal group: single IV Po-210 approx. 90 kBq, oral 15 mg/kg every 24 h x 5, sacrifice day 6", "protocol": "The digested sample was diluted with distilled water to reduce the nitric acid to approximately 1 M. An aliquot of the resulting solution was added to Ultima Gold XR liquid scintillation cocktail (Packard BioScience, Meriden, Conn.), counted and corrected for possible quenching."}, "[3]": {"conditions": "Cu^2+, cited from earlier work"}, "[4]": {"conditions": "Hg^2+, cited from earlier work"}, "[5]": {"conditions": "Ni^2+, cited from earlier work"}, "[6]": {"conditions": "Zn^2+, cited from earlier work"}, "[7]": {"conditions": "Cd^2+, cited from earlier work"}, "[8]": {"conditions": "Co^2+, cited from earlier work"}, "[9]": {"conditions": "Pb^2+, cited from earlier work"}, "[10]": {"conditions": "Ag^1+; cited from earlier work"}, "[11]": {"conditions": "Pd^2+, cited from earlier work"}, "[12]": {"conditions": "Bi^3+, cited from earlier work"}, "[13]": {"conditions": "Cr^2+; cited from earlier work"}},
  "note": "Where two headings read alike, the source gives them in different places.",
  "data": [
    {"smiles": "NCCNCCNCCN", "note": "[Trientine, N,N′-bis (2-aminoethyl)-1,2-ethanediamine]", "values": [
      {"measurement": "Co-60 Dose % for animal group", "setting": "[1]; Blood", "value": "0.18 ± 0.08", "unit": "%"},
      {"measurement": "% Reduction of Co-60 vs Co-60 Control", "setting": "[1]; Blood, 48 hr", "value": "−98", "unit": "%"},
      {"measurement": "Co-60 Dose % for animal group", "setting": "[1]; Bone Marrow", "value": "Below detection"},
      {"measurement": "Co-60 Dose % for animal group", "setting": "[1]; Intestine", "value": "0.98 ± 0.23", "unit": "%"},
      {"measurement": "% Reduction of Co-60 vs Co-60 Control", "setting": "[1]; Intestine, 48 hr", "value": 44, "unit": "%"},
      {"measurement": "Co-60 Dose % for animal group", "setting": "[1]; Kidney", "value": "0.62 ± 0.04", "unit": "%"},
      {"measurement": "% Reduction of Co-60 vs Co-60 Control", "setting": "[1]; Kidney, 48 hr", "value": 13, "unit": "%"},
      {"measurement": "Co-60 Dose % for animal group", "setting": "[1]; Liver", "value": "2.00 ± 0.47", "unit": "%"},
      {"measurement": "% Reduction of Co-60 vs Co-60 Control", "setting": "[1]; Liver, 48 hr", "value": 0, "unit": "%"},
      {"measurement": "Co-60 Dose % for animal group", "setting": "[1]; Lung", "value": "0.13 ± 0.05", "unit": "%"},
      {"measurement": "% Reduction of Co-60 vs Co-60 Control", "setting": "[1]; Lung, 48 hr", "value": 0, "unit": "%"},
      {"measurement": "Co-60 Dose % for animal group", "setting": "[1]; Muscle", "value": "1.13 ± 0.24", "unit": "%"},
      {"measurement": "% Reduction of Co-60 vs Co-60 Control", "setting": "[1]; Muscle, 48 hr", "value": 0, "unit": "%"},
      {"measurement": "Co-60 Dose % for animal group", "setting": "[1]; Spleen", "value": "0.058 ± 0.013", "unit": "%"},
      {"measurement": "% Reduction of Co-60 vs Co-60 Control", "setting": "[1]; Spleen, 48 hr", "value": 0, "unit": "%"},
      {"measurement": "Co-60 Dose % for animal group", "setting": "[1]; Stomach", "value": "0.072 ± 0.012", "unit": "%"},
      {"measurement": "% Reduction of Co-60 vs Co-60 Control", "setting": "[1]; Stomach, 48 hr", "value": 0, "unit": "%"},
      {"measurement": "Co-60 Dose % for animal group", "setting": "[1]; Total Skeleton (from femur data)", "value": "0.41 ± 0.22", "unit": "%"},
      {"measurement": "% Reduction of Co-60 vs Co-60 Control", "setting": "[1]; Total Skeleton, 48 hr", "value": 35, "unit": "%"},
      {"measurement": "effect on blood levels of Co-60", "setting": "[1]; 48 hr", "value": "elevated"},
      {"measurement": "effect on fecal elimination of Co-60", "setting": "[1]; day 1 post exposure", "value": "decreased"},
      {"measurement": "effect on urinary elimination of Co-60", "setting": "[1]; day 1 post exposure", "value": "noticeably enhanced"},
      {"measurement": "effect on total Co-60 excretion (urine and feces)", "setting": "[1]; monitored 2 days, not statistically significant, 15 mg/kg", "value": "appeared to accelerate"},
      {"measurement": "% Reduction of Po-210 vs Po-210 Control", "setting": "[2]; Blood", "value": 0, "unit": "%"},
      {"measurement": "Po-210 dpm/gm for animal group", "setting": "[2]; Blood", "value": "33273 ± 7289", "unit": "dpm/gm"},
      {"measurement": "Po-210 dpm/gm for animal group", "setting": "[2]; Femur", "value": "22415 ± 2148", "unit": "dpm/gm"},
      {"measurement": "% Reduction of Po-210 vs Po-210 Control", "setting": "[2]; Kidney", "value": 0, "unit": "%"},
      {"measurement": "Po-210 dpm/gm for animal group", "setting": "[2]; Kidney", "value": "187883 ± 15839", "unit": "dpm/gm"},
      {"measurement": "% Reduction of Po-210 vs Po-210 Control", "setting": "[2]; Liver", "value": 14, "unit": "%"},
      {"measurement": "effect on polonium-210 level (in words)", "setting": "[2]; Liver", "value": "reduced"},
      {"measurement": "Po-210 dpm/gm for animal group", "setting": "[2]; Liver", "value": "120883 ± 21221", "unit": "dpm/gm"},
      {"measurement": "% Reduction of Po-210 vs Po-210 Control", "setting": "[2]; Lung", "value": 11, "unit": "%"},
      {"measurement": "Po-210 dpm/gm for animal group", "setting": "[2]; Lung", "value": "74512 ± 22281", "unit": "dpm/gm"},
      {"measurement": "Po-210 dpm/gm for animal group", "setting": "[2]; Spleen", "value": "269303 ± 47082", "unit": "dpm/gm"},
      {"measurement": "% Reduction of Po-210 vs Po-210 Control", "setting": "[2]; femur", "value": 15, "unit": "%"},
      {"measurement": "effect on polonium-210 level (in words)", "setting": "[2]; femur", "value": "reduced"},
      {"measurement": "% Reduction of Po-210 vs Po-210 Control", "setting": "[2]; spleen", "value": 36, "unit": "%"},
      {"measurement": "effect on polonium-210 level (in words)", "setting": "[2]; spleen", "value": "reduced"},
      {"measurement": "binding stability constant (log K)", "setting": "[3]", "value": "20.05 (Cu^2+)"},
      {"measurement": "binding stability constant (log K)", "setting": "[3]; listed as trientine", "value": "very strongly"},
      {"measurement": "binding stability constant (log K)", "setting": "[4]", "value": 24.5},
      {"measurement": "binding stability constant (log K)", "setting": "[4]; listed as trientine", "value": "very strongly"},
      {"measurement": "binding stability constant (log K)", "setting": "[5]", "value": 13.8},
      {"measurement": "binding stability constant (log K)", "setting": "[5]; listed as trientine", "value": "very strongly"},
      {"measurement": "binding stability constant (log K)", "setting": "[6]", "value": 12},
      {"measurement": "binding stability constant (log K)", "setting": "[6]; listed as trientine", "value": "fairly strong"},
      {"measurement": "binding stability constant (log K)", "setting": "[7]", "value": 10.6},
      {"measurement": "binding stability constant (log K)", "setting": "[7]; listed as trientine", "value": "fairly strong"},
      {"measurement": "binding stability constant (log K)", "setting": "[8]", "value": 10.9},
      {"measurement": "binding stability constant (log K)", "setting": "[8]; listed as trientine", "value": "fairly strong"},
      {"measurement": "binding stability constant (log K)", "setting": "[9]", "value": 10.4},
      {"measurement": "binding stability constant (log K)", "setting": "[9]; listed as trientine", "value": "fairly strong"},
      {"measurement": "binding stability constant (log K)", "setting": "[10]", "value": 7.5},
      {"measurement": "binding stability constant (log K)", "setting": "[11]", "value": 39.4},
      {"measurement": "binding stability constant (log K)", "setting": "[11]; listed as trientine", "value": "very strongly"},
      {"measurement": "binding stability constant (log K)", "setting": "[12]", "value": 21.9},
      {"measurement": "binding stability constant (log K)", "setting": "[12]; listed as trientine", "value": "very strongly"},
      {"measurement": "binding stability constant (log K)", "setting": "[13]", "value": 7.9}
    ]}
  ]
}
